Assays:
[1] = 101 kPa, Liquid; for speed of sound: Pulse-echo method; for mass density: Vibrating tube method
[2] = molar heat capacity at constant pressure; conditions: 101 kPa, Liquid
[3] = xn = mol fraction of the nth substance listed; conditions: 101 kPa, Liquid, x2 = 0; for mass density: Vibrating tube method; for speed of sound: Pulse-echo method
[4] = molar heat capacity at constant pressure; xn = mol fraction of the nth substance listed; conditions: 101 kPa, Liquid, x2 = 0

BrCCCCCBr [1,5-dibromopentane]
Conditions	mass density [kg/m3]	molar heat capacity at constant pressure [J/K/mol]	speed of sound [m/s]
[1], 292.38 K	–	–	1149.5
[1], 292.52 K	1699.54	–	–
[1], 298.05 K	1691.87	–	–
[1], 298.37 K	–	–	1133
[1], 303.06 K	1684.89	–	–
[1], 303.39 K	–	–	1119.3
[1], 308.08 K	1678.03	–	–
[1], 308.38 K	–	–	1105.8
[1], 314.36 K	–	–	1089.7
[1], 314.66 K	1668.75	–	–
[2], 293.15 K	–	219.76	–
[2], 294.15 K	–	219.98	–
[2], 295.15 K	–	220.19	–
[2], 296.15 K	–	220.41	–
[2], 297.15 K	–	220.66	–
[2], 298.15 K	–	220.84	–
[2], 299.15 K	–	221.1	–
[2], 300.15 K	–	221.28	–
[2], 301.15 K	–	221.49	–
[2], 302.15 K	–	221.73	–
[2], 303.15 K	–	221.95	–
[2], 304.15 K	–	222.17	–
[2], 305.15 K	–	222.41	–
[2], 306.15 K	–	222.63	–
[2], 307.15 K	–	222.85	–
[2], 308.15 K	–	223.09	–
[2], 309.15 K	–	223.31	–
[2], 310.15 K	–	223.56	–
[2], 311.15 K	–	223.78	–
[2], 312.15 K	–	224.03	–
[2], 313.15 K	–	224.26	–

CCCCCCC [heptane]
Conditions	mass density [kg/m3]	molar heat capacity at constant pressure [J/K/mol]	speed of sound [m/s]
[1], 292.7 K	684.18	–	–
[1], 292.84 K	–	–	1153.7
[1], 297.98 K	679.88	–	–
[1], 298.84 K	–	–	1127.7
[1], 302.94 K	675.72	–	–
[1], 303.8 K	–	–	1106.4
[1], 308.06 K	671.47	–	–
[1], 308.78 K	–	–	1085.1
[1], 314.1 K	666.39	–	–
[1], 314.87 K	–	–	1059.1
[2], 293.15 K	–	222.87	–
[2], 294.15 K	–	223.23	–
[2], 295.15 K	–	223.6	–
[2], 296.15 K	–	223.97	–
[2], 297.15 K	–	224.35	–
[2], 298.15 K	–	224.72	–
[2], 299.15 K	–	225.1	–
[2], 300.15 K	–	225.47	–
[2], 301.15 K	–	225.87	–
[2], 302.15 K	–	226.22	–
[2], 303.15 K	–	226.61	–
[2], 304.15 K	–	227	–
[2], 305.15 K	–	227.4	–
[2], 306.15 K	–	227.75	–
[2], 307.15 K	–	228.14	–
[2], 308.15 K	–	228.54	–
[2], 309.15 K	–	228.95	–
[2], 310.15 K	–	229.3	–
[2], 311.15 K	–	229.71	–
[2], 312.15 K	–	230.11	–
[2], 313.15 K	–	230.51	–

CCCCCCC [heptane] + BrCCCCCBr
Conditions	mass density [kg/m3]	molar heat capacity at constant pressure [J/K/mol]	speed of sound [m/s]
[3], 292.7 K	684.18	–	–
[3], 292.84 K	–	–	1153.7
[3], 297.98 K	679.88	–	–
[3], 298.84 K	–	–	1127.7
[3], 302.94 K	675.72	–	–
[3], 303.8 K	–	–	1106.4
[3], 308.06 K	671.47	–	–
[3], 308.78 K	–	–	1085.1
[3], 314.1 K	666.39	–	–
[3], 314.87 K	–	–	1059.1
[4], 293.15 K	–	222.87	–
[4], 294.15 K	–	223.23	–
[4], 295.15 K	–	223.6	–
[4], 296.15 K	–	223.97	–
[4], 297.15 K	–	224.35	–
[4], 298.15 K	–	224.72	–
[4], 299.15 K	–	225.1	–
[4], 300.15 K	–	225.47	–
[4], 301.15 K	–	225.87	–
[4], 302.15 K	–	226.22	–
[4], 303.15 K	–	226.61	–
[4], 304.15 K	–	227	–
[4], 305.15 K	–	227.4	–
[4], 306.15 K	–	227.75	–
[4], 307.15 K	–	228.14	–
[4], 308.15 K	–	228.54	–
[4], 309.15 K	–	228.95	–
[4], 310.15 K	–	229.3	–
[4], 311.15 K	–	229.71	–
[4], 312.15 K	–	230.11	–
[4], 313.15 K	–	230.51	–

Source: the NIST ThermoML archive (doi:10.1021/je060200b)
